Laboratory results as given in patent EP2818472A1, “Imidazo[4,5-c]pyridine and pyrrolo[3,2-c]pyridine compounds as G-protein-coupled receptor kinase 5 (GRK5) modulators” (Max-Planck-Gesellschaft zur Förderung der Wissenschaften …, priority 2013, dated 2014).

Each compound was assayed on beta-TC6 cells (assay: Insulin HTRF assay (relative activity Ar) in beta-TC6 cells). Details: Mus musculus, Beta-TC6, 4 h, insulin HTRF, supernatant of beta-TC6 cells, incubation with test compound at 37°C for 2, 3, 4h; read-out: Ar (relative activity).
Format: cell-based, mouse
How it was run: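 beta-TC6 cells (15k/well, seeded 24 or 48 h) washed, then exposed to compound in induction buffer (0.5% DMSO final) for 2, 3 or 4 h at 37°C.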

Compound	Emax [%]
COc1ccc(-c2nc3cnc(Nc4ccc5c(c4)OCO5)cc3n2C)cc1OC [Compound 722, N-(1,3-benzodioxol-5-yl)-2-(3,4-dimethoxyphenyl)-1-methyl-imidazo[4,5-c]pyridin-6-amine]	30 to 50
COc1ccc(Nc2cc3c(cn2)nc(-c2ccc(OC)c(OC)c2)n3C)cc1O [Compound 723, 5-[[2-(3,4-dimethoxyphenyl)-1-methyl-imidazo[4,5-c]pyridin-6-yl]amino]-2-methoxy-phenol]	> 100
COc1cc(Nc2cc3c(cn2)nc(-c2ccncc2)n3C)cc(OC)c1OC [Compound 724, 1-methyl-2-(4-pyridyl)-N-(3,4,5-trimethoxyphenyl)imidazo[4,5-c]pyridin-6-amine]	30 to 50
COc1cc(Nc2cc3c(cn2)ncn3C)cc(OC)c1OC [Compound 725, 1-methyl-N-(3,4,5-trimethoxyphenyl)imidazo[4,5-c]pyridin-6-amine]	30 to 50
CC(=O)Nc1ccc(Nc2cc3c(cn2)ncn3C)cc1 [Compound 726, N-[4-[(1-methylimidazo[4,5-c]pyridin-6-yl)amino]phenyl]acetamide]	50 to 100
COc1ccc(Nc2cc3c(cn2)ncn3C)c(OC)c1 [Compound 727, N-(2,4-dimethoxyphenyl)-1-methyl-imidazo[4,5-c]pyridin-6-amine]	50 to 100
COc1cc(Nc2cc3c(cn2)nc(Cc2cccnc2)n3C)cc(OC)c1OC [Compound 729, 1-methyl-2-(3-pyridylmethyl)-N-(3,4,5-trimethoxyphenyl)imidazo[4,5-c]pyridin-6-amine]	30 to 50
COc1ccc(Cn2cnc3cnc(Nc4ccc(NC(C)=O)cc4)cc32)cc1OC [Compound 730, N-[4-[[1-[(3,4-dimethoxyphenyl)methyl]imidazo[4,5-c]pyridin-6-yl]amino]phenyl]acetamide]	50 to 100
COc1ccc(Cn2cnc3cnc(Nc4ccc5c(c4)OCO5)cc32)cc1OC [Compound 731, N-(1,3-benzodioxol-5-yl)-1-[(3,4-dimethoxyphenyl)methyl]imidazo[4,5-c]pyridin-6-amine]	50 to 100
COc1cc(-n2cnc3cnc(-c4cccc(C(N)=O)c4)cc32)cc(OC)c1OC [Compound 732, 3-[1-(3,4,5-trimethoxyphenyl)imidazo[4,5-c]pyridin-6-yl]benzamide]	30 to 50
Fc1cccc(-c2cc3c(cn2)ncn3-c2ccccc2)c1 [Compound 733, 6-(3-fluorophenyl)-1-phenyl-imidazo[4,5-c]pyridine]	30 to 50
COc1ccc(-c2cc3c(cn2)ncn3-c2cccc(C(F)(F)F)c2)cc1OC [Compound 734, 6-(3,4-dimethoxyphenyl)-1-[3-(trifluoromethyl)phenyl]imidazo[4,5-c]pyridine]	30 to 50
Cn1c(-c2ccccc2)nc2cnc(-c3ccc(N)nc3)cc21 [Compound 735, 5-(1-methyl-2-phenyl-imidazo[4,5-c]pyridin-6-yl)pyridin-2-amine]	30 to 50
Cn1c(-c2ccco2)nc2cnc(-c3cccc(O)c3)cc21 [Compound 736, 3-[2-(2-furyl)-1-methyl-imidazo[4,5-c]pyridin-6-yl]phenol]	50 to 100
COc1ccc(Cn2cnc3cnc(-c4cccnc4)cc32)cc1OC [Compound 737, 1-[(3,4-dimethoxyphenyl)methyl]-6-(3-pyridyl)imidazo[4,5-c]pyridine]	50 to 100
COc1ccc(Cn2cnc3cnc(-c4cc(OC)c(OC)c(OC)c4)cc32)cc1OC [Compound 738, 1-[(3,4-dimethoxyphenyl)methyl]-6-(3,4,5-trimethoxyphenyl)imidazo[4,5-c]pyridine]	30 to 50
COc1cc(-c2cc3c(cn2)ncn3Cc2ccc(OC)c(OC)c2)ccc1O [Compound 739, 4-[1-[(3,4-dimethoxyphenyl)methyl]imidazo[4,5-c]pyridin-6-yl]-2-methoxy-phenol]	30 to 50
CN(C)c1cccc(-c2cc3c(cn2)ncn3-c2cccc(F)c2)c1 [Compound 740, 3-[1-(3-fluorophenyl)imidazo[4,5-c]pyridin-6-yl]-N,N-dimethyl-aniline]	50 to 100
Sc1nc2cnccc2n1-c1ccccc1 [Compound 741, 1-phenylimidazo[4,5-c]pyridine-2-thiol]	50 to 100
c1ccc(-c2nc3cnccc3[nH]2)nc1 [Compound 742, 2-(2-pyridyl)-1H-imidazo[4,5-c]pyridine]	30 to 50
c1csc(-c2nc3ccncc3[nH]2)c1 [Compound 743, 2-(2-thienyl)-3H-imidazo[4,5-c]pyridine]	30 to 50
COCc1nc2cnc(Nc3cc(OC)c(OC)c(OC)c3)cc2n1C [Compound 745, 2-(methoxymethyl)-1-methyl-N-(3,4,5-trimethoxyphenyl)imidazo[4,5-c]pyridin-6-amine]	30 to 50

Compound	Emax [%]
CC(=O)c1cccc(-c2cc3c(cn2)nc(NCc2ccccc2F)n3C)c1 [Compound 747, 1-[3-[2-[(2-fluorophenyl)methylamino]-1-methyl-imidazo[4,5-c]pyridin-6-yl]phenyl]ethanone]	0 to 30
Cn1c(NCc2ccccc2)nc2cnc(-c3cccc(C(=O)O)c3)cc21 [Compound 748, 3-[2-(benzylamino)-1-methyl-imidazo[4,5-c]pyridin-6-yl]benzoic acid]	0 to 30
CNc1nc2cnc(Nc3ccc(Oc4ccccc4)cc3)cc2n1C [Compound 749, N2,1-dimethyl-N6-(4-phenoxyphenyl)imidazo[4,5-c]pyridine-2,6-diamine]	0 to 30
Cn1c(NCC2CC2)nc2cnc(Nc3cccc(Oc4ccccc4)c3)cc21 [Compound 750, N2-(cyclopropylmethyl)-1-methyl-N6-(3-phenoxyphenyl)imidazo[4,5-c]pyridine-2,6-diamine]	0 to 30
COCCNc1nc2cnc(-c3ccc(OC)nc3)cc2n1C [Compound 751, N-(2-methoxyethyl)-6-(6-methoxy-3-pyridyl)-1-methyl-imidazo[4,5-c]pyridin-2-amine]	0 to 30
FC(F)(F)c1cccc(-c2cc3c(cn2)ncn3-c2ccccc2)c1 [Compound 752, 1-phenyl-6-[3-(trifluoromethyl)phenyl]imidazo[4,5-c]pyridine]	0 to 30
CNc1nc2cnc(Nc3ccc(F)c(Cl)c3)cc2n1-c1cc(OC)c(OC)c(OC)c1 [Compound 753, N6-(3-chloro-4-fluoro-phenyl)-N2-methyl-1-(3,4,5-trimethoxyphenyl)imidazo[4,5-c]pyridine-2,6-diamine]	0 to 30
COc1cccc(-c2cc3c(cn2)ncn3Cc2ccc(OC)c(OC)c2)c1 [Compound 754, 1-[(3,4-dimethoxyphenyl)methyl]-6-(3-methoxyphenyl)imidazo[4,5-c]pyridine]	0 to 30
Cn1c(NCC2CCCO2)nc2cnc(Nc3cccc(OC(F)(F)F)c3)cc21 (centres unmarked) [Compound 755, 1-methyl-N2-(tetrahydrofuran-2-ylmethyl)-N6-[3-(trifluoromethoxy)phenyl]imidazo[4,5-c]pyridine-2,6-diamine]	0 to 30
Cn1c(-c2ccco2)nc2cnc(-c3cccc(OC(F)(F)F)c3)cc21 [Compound 756, 2-(2-furyl)-1-methyl-6-[3-(trifluoromethoxy)phenyl]imidazo[4,5-c]pyridine]	0 to 30
Cn1c(NCC2CC2)nc2cnc(-c3cccc(Oc4ccccc4)c3)cc21 [Compound 758, N-(cyclopropylmethyl)-1-methyl-6-(3-phenoxyphenyl)imidazo[4,5-c]pyridin-2-amine]	0 to 30
COCCNc1nc2cnc(-c3ccc4c(c3)OCO4)cc2n1C [Compound 759, 6-(1,3-benzodioxol-5-yl)-N-(2-methoxyethyl)-1-methyl-imidazo[4,5-c]pyridin-2-amine]	0 to 30
CNc1nc2cnc(Nc3ccc(OC)cc3C)cc2n1CC1CC1 [Compound 760, 1-(cyclopropylmethyl)-N6-(4-methoxy-2-methyl-phenyl)-N2-methyl-imidazo[4,5-c]pyridine-2,6-diamine]	0 to 30
CC(=O)Nc1ccc(-c2cc3c(cn2)ncn3-c2cccc(F)c2)cc1 [Compound 761, N-[4-[1-(3-fluorophenyl)imidazo[4,5-c]pyridin-6-yl]phenyl]acetamide]	0 to 30
CNc1nc2cnc(-c3cccc(OC(F)(F)F)c3)cc2n1Cc1ccccc1 [Compound 762, 1-benzyl-N-methyl-6-[3-(trifluoromethoxy)phenyl]imidazo[4,5-c]pyridin-2-amine]	0 to 30
Cn1c(NCC2CC2)nc2cnc(Nc3ccc(C(F)(F)F)cc3)cc21 [Compound 763, N2-(cyclopropylmethyl)-1-methyl-N6-[4-(trifluoromethyl)phenyl]imidazo[4,5-c]pyridine-2,6-diamine]	0 to 30
COc1cncc(-c2cc3c(cn2)nc(-c2ccco2)n3C)c1 [Compound 764, 2-(2-furyl)-6-(5-methoxy-3-pyridyl)-1-methyl-imidazo[4,5-c]pyridine]	0 to 30
CNc1nc2cnc(Nc3cccc(C(F)(F)F)c3)cc2n1Cc1cccnc1 [Compound 765, N2-methyl-1-(3-pyridylmethyl)-N6-[3-(trifluoromethyl)phenyl]imidazo[4,5-c]pyridine-2,6-diamine]	0 to 30
CNc1nc2cnc(Nc3cc(OC)cc(C(F)(F)F)c3)cc2n1Cc1ccco1 [Compound 767, 1-(2-furylmethyl)-N6-[3-methoxy-5-(trifluoromethyl)phenyl]-N2-methyl-imidazo[4,5-c]pyridine-2,6-diamine]	0 to 30
CNc1nc2cnc(-c3cccc(NS(C)(=O)=O)c3)cc2n1-c1cccc(F)c1 [Compound 768, N-[3-[1-(3-fluorophenyl)-2-(methylamino)imidazo[4,5-c]pyridin-6-yl]phenyl]methanesulfonamide]	0 to 30
Cn1c(NCCN2CCOCC2)nc2cnc(-c3cccc(F)c3)cc21 [Compound 769, 6-(3-fluorophenyl)-1-methyl-N-(2-morpholinoethyl)imidazo[4,5-c]pyridin-2-amine]	0 to 30

Same assay, conditions: insulin HTRF, supernatant of beta-TC6 cells, incubation with test compound at 37°C for 2, 3, 4h

Compound	Ar (relative activity)
Sc1nc2cnccc2n1-c1ccccc1 [Compound 744, 1-phenylimidazo[4,5-c]pyridine-2-thiol]	++ (30 % ≤ Ar < 50 %)
